Counter-ions that a name gives are not always drawn.

Test [1] relates to MDA-MB-231 cells. The test is classed as cell-based, human.
Test [2] has as its system MDA-MB-231 cells. The test can be described thus: cells. The test is classed as cell-based. Particulars: Homo sapiens, MDA-MB-231, 72 h, read-out: 3-day IC50.

As for `COc1cccc2c1C(=O)c1c(O)c3c(c(O)c1C2=O)C[C@@](O)(C(=O)CO)C[C@@H]3O[C@H]1C[C@H](N)[C@H](O)[C@H](C)O1` [doxorubicin, doxorubicin hydrochloride], the “cell death pathway triggered” value in test [1] is reported as “necrotic cell death pathway”. Further, in test [2], the IC50 is about 510 nM.

For the compound `COC1=C2C[C@@H](C)C[C@H](OC)[C@H](O)[C@@H](C)/C=C(\C)[C@H](OC(N)=O)[C@@H](OC)/C=C\C=C(/C)C(=O)NC(=CC1=O)C2=O` [geldanamycin, Geldanamycin], the “cell death pathway triggered” value in test [1] is on record as “apoptosis”. In test [2], the IC50 turned out to be 3700 nM.
